US8354414B2, “Substituted bicyclic pyrimidines” (Cephalon, Inc, priority 2006, dated 2013)
Read-outs that look alike come from different tables or passages of the source.

How the values were obtained:
His6-GSK-3β = biological target: T1, His6-GSK-3β (Homo sapiens, UniProt P49841); assay: Inhibition of His6-GSK-3β kinase activity (ELISA-based format, time-resolved fluorescence readout); type: biochemical; conditions: read-out: GSK3β IC50
T1 construct: made in house; host or cells: Sf21 insect cells (baculovirus)
T1 sequence (P49841 2-419): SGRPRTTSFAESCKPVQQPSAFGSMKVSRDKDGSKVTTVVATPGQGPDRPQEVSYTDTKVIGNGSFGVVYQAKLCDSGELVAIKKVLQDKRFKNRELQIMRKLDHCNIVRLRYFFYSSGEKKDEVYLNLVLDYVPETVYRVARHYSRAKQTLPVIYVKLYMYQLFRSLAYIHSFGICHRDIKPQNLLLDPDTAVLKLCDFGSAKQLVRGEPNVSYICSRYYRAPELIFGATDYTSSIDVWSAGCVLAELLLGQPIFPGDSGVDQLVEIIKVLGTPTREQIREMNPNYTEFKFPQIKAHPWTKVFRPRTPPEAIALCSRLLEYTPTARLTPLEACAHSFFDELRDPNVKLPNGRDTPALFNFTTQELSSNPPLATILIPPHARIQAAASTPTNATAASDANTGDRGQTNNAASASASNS
Summary of the method: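 Plate-bound recombinant GST-Rb substrate was phosphorylated for 30 min at 37° C by baculovirus-expressed His6-GSK-3β (200 ng/ml) at 20 μM ATP, 10 mM MgCl2, 2.5% DMSO. Europium time-resolved fluorescence of anti-phospho-Ser780 Rb signal gave inhibition, fitted to IC50.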

CDK5/GST-p25 = biological target: T2, CDK5/GST-p25 (Homo sapiens, UniProt Q00535); assay: Inhibition of CDK5/GST-p25 kinase activity (ELISA with time-resolved fluorescence readout); type: biochemical
T2 construct: The final construct, encoding for full-length human CDK5; made in house; host or cells: Sf21 insect cells (baculovirus co-infection)
T2 sequence (Q00535 whole entry): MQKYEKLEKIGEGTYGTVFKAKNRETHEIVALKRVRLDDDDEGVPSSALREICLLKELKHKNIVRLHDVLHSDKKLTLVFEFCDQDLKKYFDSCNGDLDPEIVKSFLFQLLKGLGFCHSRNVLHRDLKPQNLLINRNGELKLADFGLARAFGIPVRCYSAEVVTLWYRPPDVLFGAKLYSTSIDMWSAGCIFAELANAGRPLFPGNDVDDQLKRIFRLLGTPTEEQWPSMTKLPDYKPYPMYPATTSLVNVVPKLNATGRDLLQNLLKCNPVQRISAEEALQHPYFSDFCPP
T2 sequence (Q15078 108-307 partner limits assumed): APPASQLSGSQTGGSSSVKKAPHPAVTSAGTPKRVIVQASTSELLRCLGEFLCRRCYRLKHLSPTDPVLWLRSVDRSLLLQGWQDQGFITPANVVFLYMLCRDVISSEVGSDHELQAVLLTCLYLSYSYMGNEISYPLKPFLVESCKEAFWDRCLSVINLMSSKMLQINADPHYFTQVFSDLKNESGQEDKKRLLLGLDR
Summary of the method: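 The substrate, GST-Rb(773-928), was immobilised on plates and phosphorylated for 20 min at 37 °C by 2 ng/ml CDK5/GST-p25 in HEPES pH 7.2 with 10 µM ATP and 10 mM MgCl2. Both proteins were human and co-expressed in insect cells. Ser-780 phosphorylation was read by europium time-resolved fluorescence and converted to IC50.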

| Structure (SMILES) | IC50 (His6-GSK-3β; class symbols) [nM] | IC50 (CDK5/GST-p25; class symbols) [nM] | melting point [°C] | IC50 (CDK5/GST-p25; numeric bounds) [nM] | IC50 (His6-GSK-3β; numeric bounds) [nM] |
| --- | --- | --- | --- | --- | --- |
| CNc1nc(C2C(=O)Nc3ccc(C(F)(F)F)cc32)c2cn(C3CCCC3)nc2n1 (stereo not drawn) [Example 159, 3(-2-cyclopentyl-6-methylamino-2H-pyrazolo[3,4-d]pyrimidin-4-yl)-5-trifluoromethyl-1,3-dihydro-indol-2-one] | > 10000 | > 10000 | > 300 | – | – |
| C=CCNc1nc(C2C(=O)Nc3ccc(C(F)(F)F)cc32)c2cn(C3CCCC3)nc2n1 (stereo not drawn) [Example 248, 3-(6-Allylamino-2-cyclopentyl-2H-pyrazolo[3,4-d]pyrimidin-4-yl)-5-trifluoromethyl-1,3-dihydro-indol-2-one] | < 300 | > 10000 | > 300 | – | – |
| O=C1Nc2ccc(Cl)cc2C1c1ncnc2c1cnn2C1CCCC1 (stereo not drawn) [Example 58, 5-Chloro-3-(1-cyclopentyl-1H-pyrazolo[3,4-d]pyrimidin-4-yl)-1,3-dihydro-indol-2-one] | – | > 10000 | 304 to 306 | – | > 3000 |
| CCOCCn1cc2c(C3C(=O)Nc4ccc(Cl)cc43)nc(NCc3ccncc3)nc2n1 (stereo not drawn) [Example 214, 5-Chloro-3-{2-(2-ethoxy-ethyl)-6-[(pyridine-4-ylmethyl)-amino]-2H-pyrazolo[3,4-d]pyrimidin-4-yl}-1,3-dihydro-indol-2-one] | < 300 | < 300 | 298 to 299 | – | – |

Continued, values first:

| IC50 (His6-GSK-3β; class symbols) [nM] | IC50 (CDK5/GST-p25; class symbols) [nM] | melting point [°C] | IC50 (CDK5/GST-p25; numeric bounds) [nM] | IC50 (His6-GSK-3β; numeric bounds) [nM] | Structure (SMILES) |
| --- | --- | --- | --- | --- | --- |
| < 300 | – | 208 to 211 | > 3000 | – | CNCCCNc1nc(C2C(=O)Nc3ccc(Br)cc32)c2cn(C3CCCC3)nc2n1.Cl (stereo not drawn) [Example 379, 5-Bromo-3-[2-cyclopentyl-6-(3-methylamino-propylamino)-2H-pyrazolo[3,4-d]pyrimidin-4-yl]-1,3-dihydro-indol-2-one hydrochloride salt] |
| < 300 | < 300 | 297 to 298.5 | – | – | CC(C)CNc1nc(C2C(=O)Nc3ccc(C#N)cc32)c2cn(C3CCCC3)nc2n1 (stereo not drawn) [Example 165, 3-(2-cyclopentyl-6-isobutylamino-2H-pyrazolo [3,4-d]pyrimidin-4-yl)-2-oxo-2,3-dihydro-1H-indole-5-carbonitrile] |
| < 300 | < 300 | 240 to 259 | – | – | CNCCCNc1nc(C2C(=O)Nc3ccc(Br)cc32)c2cn(CC(C)C)nc2n1 (stereo not drawn) [Example 267, 5-Bromo-3-[2-isobutyl-6-(3-methylamino-propylamino)-2H-pyrazolo[3,4-d]pyrimidin-4-yl]-1,3-dihydro-indol-2-one] |
